These results are taken from patent publication US12616674B2, “Anti-fibrotic NEU3 inhibitor compounds and methods of use” (The Texas A&M University System, priority 2019, dated 2026).

Assay [1] concerns the target T1, recombinant human sialidase NEU3 (Homo sapiens, UniProt Q9UQ49).
T1 construct: purchased Origene TP316537
T1 sequence (Q9UQ49 1-428): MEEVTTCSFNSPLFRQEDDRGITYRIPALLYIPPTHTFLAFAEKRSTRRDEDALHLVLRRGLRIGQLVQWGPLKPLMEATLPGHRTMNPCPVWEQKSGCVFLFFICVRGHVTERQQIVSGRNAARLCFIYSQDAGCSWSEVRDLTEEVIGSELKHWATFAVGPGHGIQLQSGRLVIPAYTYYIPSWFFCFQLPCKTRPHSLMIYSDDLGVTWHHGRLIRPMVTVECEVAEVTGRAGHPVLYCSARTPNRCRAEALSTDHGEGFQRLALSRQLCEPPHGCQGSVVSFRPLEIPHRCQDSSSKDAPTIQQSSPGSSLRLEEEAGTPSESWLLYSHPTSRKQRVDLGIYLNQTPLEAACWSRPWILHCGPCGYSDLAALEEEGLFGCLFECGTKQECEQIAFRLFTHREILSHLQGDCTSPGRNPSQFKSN
In words: NEU3-catalyzed L-TGF-β1 activation (TGF-β1 release/concentration assay, active TGF-β1 ELISA). It is filed as biochemical. Particulars: recombinant human NEU3, L-TGF-β1, PBS pH 6.9, 2 hours 37° C. The protocol: To determine if NEU3 can cause latent transforming growth factor-β1 (L-TGF-β1) to release active TGF-β1, 200 ng/ml recombinant human L-TGF-β1 (299-LT/CF, R&D Systems) was incubated with varying concentrations of recombinant human NEU3 (TP316537, Origene) in a total volume of 100 μl of PBS pH 6.9 in a 96-well microplate (651261, Greiner Bio-one, Monroe, NC). The microplates were covered with aluminum foil and incubated at 37° C. for 2 hours. Following incubation, the reaction mixtures were assayed using a TGF-β1 ELISA kit (DY240, R&D Systems) following the manufacturer's protocol with the exception that the reaction mixtures were not processed for acid treatment, so as to measure only active TGF-β1 and not total TGF-β1. The absorbance was read with a SynergyMX plate reader (BioTek, Winooski, VT).
To determine the ability of compounds 1-31 to inhibit human recombinant NEU3 in-vitro, compounds were dissolved in 5 ml water to 20 mM in 15 ml tubes (89039-664, VWR, Radnor, PA), with the exception that 4-hydroxypyridine-2-carboxylic acid, nicotinic acid, and 4-aminopicolinic acid were dissolved in 50 μl DMSO to 2 M, and this was then added to 4.95 ml of water to make a 20 mM stock, and O-(tetrahydro-2H-pyran-2yl) hydroxylamine and salicylic acid were dissolved in 50 μl methanol to 2 M, and this was then added to 4.95 ml of water to make a 20 mM stock. All stocks were stored at 4° C. and used within 2 weeks of preparation. A 10-fold dilution series of the compounds starting at 2 mM were made in PBS pH 6.9 in 1.7 ml clear microtubes (22-281, Genesee Scientific). 100 μl of diluted compound was added to the well of a 96 well plate and then 50 μl of 400 ng/ml recombinant human sialidase NEU3 (TP316537, Origene) in PBS pH 6.9 was added to each well (50 μl PBS pH 6.9 for the control), and the plate was incubated for 30 minutes at 37° C. 50 μl of 800 ng/ml L-TGF-β1 (299-LT/CF, R&D Systems) in PBS pH 6.9 was then added to the well. The plate was covered with aluminum foil and incubated for 2 hours at 37° C., and released active TGF-β1 was assayed as described above.

Assay [2] has as its system NEU3-induced IL-6 production by human PBMC. In words: NEU3-induced extracellular IL-6 accumulation by human PBMC (IL-6 concentration assay). The assay is classed as cell-based. As to conditions: NEU3, serum-free medium, 48 hours. The procedure: Human peripheral blood was collected from healthy volunteers who gave written consent and with specific approval from the Texas A&M University human subjects review board. Peripheral blood mononuclear cells (PBMC) were isolated from the blood using Ficoll-Paque density gradient centrifugation (95021-205, GE Healthcare, Cincinnati, OH) following the manufacture's protocol. PBMC were cultured at […] in 96-well flat bottom tissue culture plates (type 62406-081; […] Louis, MO)) in a final volume of 200 μl per well. […] The sialidases were diluted in 100 μl of the same medium the cells were in, and added to 100 μl of cells at 1×10^5 cells/ml to make the total volume in a well 200 μl with 1×10^4 cells/well. The cells were then incubated at 37° C. in a humidified incubator with 5% CO2. The culture supernatants were collected after two or five days and assayed using an IL-6 ELISA kit (430501, Biolegend, San Diego, CA) following the manufacturer's protocol, reading absorbance with a SynergyMX plate reader (BioTek, Winooski, VT). Statistics were analyzed using Prism software (Graphpad, La Jolla, CA). At least three different donors were used for each assay. […] IL-6 in the culture supernatant was then assayed as described above. At least three different donors were used for each assay.

Where [3] appears, read: read-out: IC50, inhibits human NEU3 in the TGF-β1 concentration (release) assay.
Setting [4] is: read-out: IC50, inhibits human NEU3 in the TGF-β1 concentration assay.

Like-named read-outs stand apart in the source and are kept apart here.

With `NOC1CCCCO1` (centres unmarked) [Compound 16, O-(tetrahydro-2H-pyran-2-yl)-hydroxylamine], the IC50 in assay [1] (setting [3]) turned out to be 2600 nM.
Consider `Nc1ccc(C(=O)O)nc1` [Compound 18, 5-aminopyridine-2-carboxylic acid], for which the figures for the IC50 in assay [1] (setting [4]) and in assay [2] were 40 nM and 140 nM, respectively.
On to `O=C(O)[C@H]1CCCN1` [Compound 29, D-proline], for which the values for the IC50 in assay [1] (setting [4]) and in assay [2] were 63 nM and 4200 nM, respectively.
The like results for `O=C(O)c1ccc([N+](=O)[O-])cn1` [Compound 8, 5-nitro picolinic acid] were, in that order, 43 nM and 79 nM.
Take `O=C(O)c1cc(O)ccn1` [Compound 2, 4-hydroxypyridine-2-carboxylic acid]: in assay [2], the IC50 is over 300000 nM.
For the molecule `NC1CCNC(C(=O)O)C1` (centres unmarked) [Compound 25, 2-piperidinecarboxylic acid, 4-amino], the IC50 was determined as 2 nM in assay [1] (setting [4]) and 0.13 nM in assay [2].
Regarding `COc1ccnc(C(=O)O)c1` [Compound 9, 4-methoxy picolinic acid], the IC50 in assay [1] (setting [4]) is 3.2 nM; in assay [2], over 100000 nM.
In the case of `O=C(O)c1ccccc1O` [Compound 15, salicylic acid], the IC50 in assay [1] (setting [3]) came out at 1800 nM.
For `O=[N+]([O-])c1ccccn1` [Compound 19, 2-Nitropyridine], the IC50 in assay [1] (setting [4]) amounted to 40 nM; in assay [2] it was 20 nM.
The like results for `O=C(O)c1cccnc1` [Compound 14, nicotinic acid] were, in that order, 0.011 nM and 1500 nM.
The like results for `CCOC(=O)C1=C[C@@H](OC(CC)CC)[C@H](NC(C)=O)[C@@H](N)C1` [Compound 28, oseltamivir, reference compound] were, in that order, 570 nM and 47000 nM.
On the same counts, the results for `O=C(O)c1cccc(CO)n1` [Compound 17, 6-(hydroxymethyl) picolinic acid] are 0.05 nM and 38 nM.
`O=C(O)c1ccccn1` [Compound 4, picolinic acid]: the IC50 in assay [1] (setting [4]) is under 0.01 nM; in assay [2], over 100000 nM.
Consider `CC(=O)Nc1ccc(C(=O)O)nc1` [Compound 3, 5-acetamidopyridine-2-carboxylic acid], for which the IC50 was found to be 11 nM in assay [1] (setting [4]) and 6200 nM in assay [2].
The like results for `Nc1ccnc(C(=O)O)c1` [Compound 7, 4-amino picolinic acid] were, in that order, 4 nM and over 100000 nM.
Regarding `O=C(O)C1=CCCCN1` [Compound 12, sodium 1,4,5,6-tetrahydropyridine-2-carboxylate], in assay [1] (setting [3]), the IC50 stood at 120000 nM.
As to `Cc1cccc(C(=O)O)n1` [Compound 27, 6-methyl-2-pyridinecarboxylic acid], the IC50 in assay [1] (setting [4]) is under 0.01 nM; in assay [2], 4.1 nM.
The like results for `NC(=O)c1ccccn1` [Compound 10, picolinamide] were, in that order, 22 nM and over 100000 nM.
In the case of `O=C(O)c1cc(=O)cc[nH]1` [Compound 24, 4-oxo-1,4-dihydropyridine-2-carboxylic acid], the IC50 in assay [2] amounted to 8500 nM.
In the case of `Cc1ccnc(C(=O)O)c1` [Compound 22, 4-methylpicolinic acid], the IC50 in assay [1] (setting [3]) was 130 nM; in assay [2], 4700 nM.
As for `O=C(O)[C@@H]1CCCCN1` [Compound 13, L-pipecolinic acid], the IC50 in assay [1] (setting [4]) came to 0.49 nM; in assay [2], 7900 nM.
On the same counts, the results for `O=C(O)C1CCCCCN1` (centres unmarked) [Compound 31, azepane-2-carboxylic acid] are 2.4 nM and 35 nM.
On the same counts, the results for `Nc1ccncc1C(=O)O` [Compound 23, 4-aminonicotinic acid] are 5 nM and 10000 nM.
In the case of `O=C(O)c1ccc[nH]1` [Compound 30, pyrrole-2-carboxylic acid], the results for the IC50 in assay [1] (setting [3]) and in assay [2] were 164000 nM and 9500 nM, respectively.
Take `O=C(O)c1cc(C(F)(F)F)ccn1` [Compound 21, 4-(trifluoromethyl) picolinic acid]: the IC50 in assay [2] is 0.08 nM.
